In US20090210952A1, “Compositions and Methods Related to Controlled Gene Expression Using Viral Vectors” (priority 2005, published 2009):

What was measured:
GFP expression = assay: DOX concentration required to induce GFP expression in infected cells (fluorescent microscopy); format: cell-based; details: within 48 hours; cells infected with viral particles from pHReGFPO2/EFtet/blas
Experimental: To determine the DOX concentration required to induce gene expression in the single vector system, different concentration of DOX were added to cells infected with viral particles derived from pHReGFPO2/EFtet/blas (titer 2.5×10^6/ml). GFP expression was monitored by fluorescent microscopy.

transgenic mice = assay: Induction of eGFP expression in transgenic mice by drinking water containing DOX; format: in vivo, mouse
Experimental: To determine whether the inducible constructs could induce eGFP expression in vivo, the transgenic mice were fed drinking water containing 100 μg/ml DOX. GFP expression in the body (paw) and PBMCs was analyzed by fluorescent microscopy and FACS analysis before and after the transgenic mice were fed DOX.
A previous study reported that a DOX concentration of 0.1-10 mg/ml in the drinking water of transgenic mice containing a tet regulatable system, was required for inducible gene expression within the animal. To determine the concentration of DOX required for inducible expression of GFP in the transgenic mice described above, the F1 mice from CAG-founder 6# were divided into the four groups which were fed drinking water containing different concentrations of DOX including 0 ug/ml (Group 1), 4 ug/ml (Group 2), 20 ug/ml (Group 3), and 100 ug/ml (Group 4). GFP expression was monitored by visualizing GFP expression in the fingers of the transgenic mouse under UV light after 0, 1, 2, 3, 5 and 18 days of feeding the mice DOX. The intensity of the fluorescent signal in the fingers of the tested mice over the course of the experiment was observed. […] The intensity of the fluorescent signal for Groups 3 and 4 expressed their highest level of GFP expression after 5 days of DOX feeding. In addition, 4 ug/ml of DOX fed to the mice of Group 2 mice was sufficient to induce GFP expression, however the induction was delayed and the intensity was relatively weak as compared to Group 3 and 4 mice. Also of note is that the intensity of a fluorescent signal appeared in a does-dependent manner.
Using the FACS, positive blood cells expressing GFP were isolated and quantified. […] For all mice of Groups 2, 3 and 4, both the number and intensity of GFP expressing cells increased after the mice were fed DOX.
To determine the pharmacokinetics of DOX, 43% of the blood cells expressed GFP from Group 4 mice (after 18 days of DOX feeding), this level was used to set the threshold of 100 percent induction.

[1] = system: transgenic mice containing a tet regulatable system; details: previous study; cited from earlier work

With `C[C@H]1c2cccc(O)c2C(O)=C2C(=O)[C@]3(O)C(O)=C(C(N)=O)C(=O)[C@@H](N(C)C)[C@@H]3[C@@H](O)[C@@H]21` [DOX, doxycycline] the “DOX sufficient to induce GFP expression” value (GFP expression) was 15 ng, the “time of DOX feeding until mice began to express GFP” value (transgenic mice; 20 ug/ml and 100 ug/ml DOX (Group 3 and Group 4)) was 1 days and the “time of DOX feeding to highest level of GFP expression” value (transgenic mice; 20 ug/ml and 100 ug/ml DOX (Groups 3 and 4)) was 5 days. For the same molecule, the “DOX concentration in drinking water sufficient to induce GFP expression” value (transgenic mice; F1 mice from CAG-founder 6#, fingers under UV light, induction delayed, intensity relatively weak) was 4 µg/mL, the “blood cells expressing GFP” value (transgenic mice; Group 4 (100 ug/ml DOX), after 18 days of DOX feeding, FACS) was 43% and the “DOX concentration in the drinking water required for inducible gene expression” value [1] was 0.1 to 10 mg/mL.
